Assay results as given in the supplement of paper PMC4862054.

Assays:
Conditions in all cases: incubation time: 72 h
MDA-MB-436 [1] = test: normalised response (% of control), CellTox Green; higher = less cell death (100 = DMSO, 0 = benzethonium chloride kill control)
Procedure, shortened: (§1)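 CellTox Green fluorescence (485/520 nm) and, after 10 min at room temperature, CellTiter-Glo luminescence were read from breast cancer cell lines incubated 72 h in 384-well plates. Cells were seeded as 20 µl suspension onto compound at 5 concentrations in 10-fold steps over a 10,000-fold range chosen per compound. Each plate was normalised to 0.1 % DMSO (100) and a positive kill control (0). Values are normalised signals, one per concentration.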

MFM-223 [2] = test: as above
Procedure, shortened: as §1

Hs578T [3] = test: as above
Procedure, shortened: as §1

MDA-MB-453 [4] = test: as above
Procedure, shortened: as §1

CAL-148 [5] = test: as above
Procedure, shortened: as §1

BT-474 [6] = test: as above
Procedure, shortened: as §1

HCC1143 [7] = test: as above
Procedure, shortened: as §1

MDA-MB-468 [8] = test: as above
Procedure, shortened: as §1

CAL-51 [9] = test: as above
Procedure, shortened: as §1

HDQ-P1 [10] = test: as above
Procedure, shortened: as §1

CAL-85-1 [11] = test: as above
Procedure, shortened: as §1

BT-549 [12] = test: as above
Procedure, shortened: as §1

DU-4475 [13] = test: as above
Procedure, shortened: as §1

HCC1599 [14] = test: as above
Procedure, shortened: as §1

MDA-MB-231 [15] = test: as above
Procedure, shortened: as §1

HCC1937 [16] = test: as above
Procedure, shortened: as §1

CAL-120 [17] = test: as above
Procedure, shortened: as §1

MCF-10A [18] = test: as above
Procedure, shortened: as §1

MDA-MB-436 [19] = test: normalised response (% of control), CellTiter-Glo; higher = more viable cells (100 = DMSO, 0 = benzethonium chloride kill control)
Procedure, shortened: as §1

SK-BR-3 = test: as above
Procedure, shortened: as §1

MFM-223 [20] = test: as above
Procedure, shortened: as §1

Hs578T [21] = test: as above
Procedure, shortened: as §1

MDA-MB-453 [22] = test: as above
Procedure, shortened: as §1

CAL-148 [23] = test: as above
Procedure, shortened: as §1

BT-474 [24] = test: as above
Procedure, shortened: as §1

HCC1143 [25] = test: as above
Procedure, shortened: as §1

MDA-MB-468 [26] = test: as above
Procedure, shortened: as §1

CAL-51 [27] = test: as above
Procedure, shortened: as §1

HDQ-P1 [28] = test: as above
Procedure, shortened: as §1

CAL-85-1 [29] = test: as above
Procedure, shortened: as §1

BT-549 [30] = test: as above
Procedure, shortened: as §1

DU-4475 [31] = test: as above
Procedure, shortened: as §1

HCC1599 [32] = test: as above
Procedure, shortened: as §1

MDA-MB-231 [33] = test: as above
Procedure, shortened: as §1

HCC1937 [34] = test: as above
Procedure, shortened: as §1

CAL-120 [35] = test: as above
Procedure, shortened: as §1

MCF-10A [36] = test: as above
Procedure, shortened: as §1

SMILES	normalised response (MDA-MB-436 [1]) [%]	normalised response (MFM-223 [2]) [%]	normalised response (Hs578T [3]) [%]	normalised response (MDA-MB-453 [4]) [%]	normalised response (CAL-148 [5]) [%]	normalised response (BT-474 [6]) [%]	normalised response (HCC1143 [7]) [%]	normalised response (MDA-MB-468 [8]) [%]	normalised response (CAL-51 [9]) [%]	normalised response (HDQ-P1 [10]) [%]	normalised response (CAL-85-1 [11]) [%]	normalised response (BT-549 [12]) [%]	normalised response (DU-4475 [13]) [%]	normalised response (HCC1599 [14]) [%]	normalised response (MDA-MB-231 [15]) [%]	normalised response (HCC1937 [16]) [%]	normalised response (CAL-120 [17]) [%]	normalised response (MCF-10A [18]) [%]	normalised response (MDA-MB-436 [19]) [%]	normalised response (SK-BR-3) [%]	normalised response (MFM-223 [20]) [%]	normalised response (Hs578T [21]) [%]	normalised response (MDA-MB-453 [22]) [%]	normalised response (CAL-148 [23]) [%]	normalised response (BT-474 [24]) [%]	normalised response (HCC1143 [25]) [%]	normalised response (MDA-MB-468 [26]) [%]	normalised response (CAL-51 [27]) [%]	normalised response (HDQ-P1 [28]) [%]	normalised response (CAL-85-1 [29]) [%]	normalised response (BT-549 [30]) [%]	normalised response (DU-4475 [31]) [%]	normalised response (HCC1599 [32]) [%]	normalised response (MDA-MB-231 [33]) [%]	normalised response (HCC1937 [34]) [%]	normalised response (CAL-120 [35]) [%]	normalised response (MCF-10A [36]) [%]
CCOC(=O)CCNc1cc(N2CCc3ccccc3CC2)nc(-c2ccccn2)n1 [GSK-J4] (10000 nM)	88.8	76.9	-14.7	88.5	53.5	-18.4	68.1	40.1	52.1	49.9	2.31	81.8	79.9	80.2	57.7	100	87.7	89.3	22.8	57.2	42.3	59.3	33.1	10.1	44.7	41.2	12.7	12.2	56.3	20.1	20.8	30.6	45.9	30.7	49.4	61.7	45.2
Nc1cc(C(F)(F)F)c(-c2cc(N3CCOCC3)nc(N3CCOCC3)n2)cn1 [Buparlisib] (1000 nM)	90	97.5	107	98.9	91.7	94.7	95.9	165	107	98.7	106	113	95.6	95.4	80	96.8	100	-21.3	102	84	53.3	91.1	99	96.2	99.8	94	82.9	90.4	70.9	95.1	89.6	82.9	102	90.3	89.5	88	55.6
Cc1cc(Nc2cc(CN3CCOCC3)c3nc(C)c(Cc4ccc(Cl)cc4F)n3n2)n[nH]1 [Gandotinib] (1000 nM)	66.1	33	101	107	104	104	97	99.5	71.4	105	78.5	119	102	104	101	101	97.4	90.8	86.4	82.4	69.7	86.7	107	96.7	75.8	88.6	53.1	55	90	78.1	77	99.9	124	70.7	96.7	90.4	96.6
CCn1c(-c2nonc2N)nc2cnc(Oc3cccc(NC(=O)c4ccc(OCCN5CCOCC5)cc4)c3)cc21 (1000 nM)	88.7	101	96.5	98.7	83.5	101	95.2	111	79.7	107	109	113	95.2	95	79.5	73.9	99	104	98.1	81.8	94.2	73.5	95.6	86.7	82.6	97.9	83	83.2	89.9	102	73.1	91.8	91.3	80.5	98.2	72.6	75.9
COc1cc2c(NC3CCN(C(C)C)CC3)nc(N3CCC(F)(F)CC3)nc2cc1OCCCN1CCCC1 [UNC0642] (1000 nM)	61.8	88.9	67.8	102	94.5	97.4	102	146	98	104	97.7	86.2	96.4	97.6	92.8	108	96.9	90.6	90.9	96.4	91.2	100	94.6	89.1	109	91.2	85.9	108	99.7	93.2	92.4	98.7	93.1	95.4	94	89	84.6
CNC(=O)c1cccc(-c2ccc3c(N4CCOC[C@@H]4C)nc(N4CCOC[C@@H]4C)nc3n2)c1 [AZD2014] (1000 nM)	82.4	61.1	102	102	46.1	96.9	97.5	132	92.3	100	104	104	102	92.1	104	70.8	105	104	51.6	24.3	33.7	43.6	39.8	35.1	59.5	36.9	43.3	28.8	40.2	36.9	34.5	67.9	98.5	57.8	56.7	32.5	46.5
